Results on four compounds are retold here after patent US5578479A, “Alpha-amylase from hyperthermophilic archaebacterium” (The Johns Hopkins University, priority 1992, dated 1996).

Structures can show the parent of a compound that is named as a salt.

For experiment [1], the target named is T1, Pyrococcus furiosus α-amylase, purified, wild type, SEQ ID NO:1 (Pyrococcus furiosus, UniProt P49067).
T1 construct: made in house; host or cells: Pyrococcus furiosus DSM 3638, native cells (not recombinant); cytosolic fraction, three ion exchange steps and electroelution
T1 sequence (P49067 2-649): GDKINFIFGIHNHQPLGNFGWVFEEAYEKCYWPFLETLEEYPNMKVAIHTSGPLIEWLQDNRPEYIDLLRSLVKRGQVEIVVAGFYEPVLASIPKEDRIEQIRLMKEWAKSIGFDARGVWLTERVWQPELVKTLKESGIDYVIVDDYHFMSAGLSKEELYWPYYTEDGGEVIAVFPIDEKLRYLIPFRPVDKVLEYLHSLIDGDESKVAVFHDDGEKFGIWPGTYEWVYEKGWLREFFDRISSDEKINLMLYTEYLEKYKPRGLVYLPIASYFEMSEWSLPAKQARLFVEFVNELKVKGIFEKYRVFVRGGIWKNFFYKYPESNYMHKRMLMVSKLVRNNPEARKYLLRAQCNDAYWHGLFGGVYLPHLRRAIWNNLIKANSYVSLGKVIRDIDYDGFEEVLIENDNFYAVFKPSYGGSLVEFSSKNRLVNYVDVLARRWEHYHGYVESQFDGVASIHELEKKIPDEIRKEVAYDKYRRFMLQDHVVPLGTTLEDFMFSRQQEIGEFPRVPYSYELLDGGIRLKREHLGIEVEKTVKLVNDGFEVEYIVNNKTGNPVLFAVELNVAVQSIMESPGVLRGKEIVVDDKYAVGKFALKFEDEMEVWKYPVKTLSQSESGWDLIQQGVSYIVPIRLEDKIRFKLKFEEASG
As to the kind of experiment: activity stained native-PAGE after heating samples with additive. It is filed as biochemical. To be noted: sample heated 15 minutes.
Procedure: Samples were heated 15 min in the following: Lane 1, 100 mM sodium phosphate pH 7.0; Lane 2, 5 mM EDTA; Lane 3, % SDS; Lane 4, 12% β-mercaptoethanol. The samples were run on a native gel (8% acrylamide), containing 0.02% starch, and stained as described in the Examples.
Activity staining was accomplished by the incorporation of starch into the acrylamide matrix of the resolving gel. When preparing the gels, as described above, 0.05% soluble starch was used in place of distilled water when the gels were cast. To observe the thermophilic amylase activity following electrophoresis the spacers and the gel left between the glass plates were sealed with Saran Wrap to prevent dessication. The gel, between the plates, was then incubated for 30 minutes at 98° C., then stained with iodine solution (see above). […] Following this procedure it was still possible to stain the gel with Coomassie blue to visualize the proteins within the gel.
To determine the effect of denaturants and metal ions on the activity of P. furiosus α-amylase activity, stained native-PAGE or in vitro activity assays were utilized.

Experiment [2] has as its target T1, Pyrococcus furiosus α-amylase, purified, wild type, SEQ ID NO:1. Put plainly: standard activity assay in the presence of denaturants. The experiment is classed as biochemical. The following applies: reagent present at 1M, 98° C. As to the method: The dextrinizing activity of the α-amylase was determined using a modification of the assay of Manning and Campbell (Manning et al, J. Biological Chem. 236(11):2952-2957 (1961)). To 20 μl of sample were added 20 μl of 1% soluble starch and 20 μl of 100 mM sodium phosphate, pH 7.0. Controls were prepared using an equal volume of the appropriate buffer in place of the enzyme solution. The samples were incubated at 92° C. for 10 minutes and the reaction terminated by cooling in ice water. Color was developed by the addition of 15 μl of an iodine solution (4% KI, 1.25% I). An additional 1 ml of distilled water was added to each sample to dilute the color of the sample to a measurable range. The absorbance was read at 600 nm with a Pharmacia LB Ultraspec III Spectrophotometer. One unit of α-amylase activity was defined as the amount of protein which hydrolyzed 1 mg of starch per minute.
The extent of activity loss induced by the denaturants, urea and guanidine HCl, was determined using a standard activity assay in which the above-mentioned reagents were present in 1M concentrations. At 98° C. the residual activity in the presence of these denaturants was 86.5% and 73% for urea and guanidine HCl, respectively.

Consider `O=C(O)CN(CCN(CC(=O)O)CC(=O)O)CC(=O)O` [EDTA], for which the “effect on activity (activity stained native-PAGE)” value in experiment [1] (5 mM EDTA) was “no significant effect on activity”. `N=C(N)N` [guanidine HCl]: in experiment [2], the “residual activity in the presence of denaturant” value was 73%. As for `NC(N)=O` [urea], the “residual activity in the presence of denaturant” value in experiment [2] was 86.5%.

`OCCS` [β-mercaptoethanol]: the “effect on activity (activity stained native-PAGE)” value in experiment [1] (2% β-mercaptoethanol) is reported as “no significant effect on activity”.
